Measured values reported in patent publication US7179954B1, “Isolated nucleic acids coding for a nuclear base transporter and uses thereof” (Carnegie Insitution of Washington, priority 1999, dated 2007).
Each block holds one compound with its values, some of them ahead of it.

Key:
[1] = biological target: T1, PUP1 nuclear base transporter (Arabidopsis thaliana, UniProt Q9FZ96, S63G); type: cell-based; details: for Transport of cytokinin by PUP1: 3H-labelled cytokinins
T1 construct: The PUP1 protein expressed by the yeast strain MG887ura3^−::pFL61-PUP1; expressed in transfected cells; host or cells: Saccharomyces cerevisiae MG887ura3- (fcy2), plasmid pFL61-PUP1
Procedure: The uptake was set temporarily at a concentration of 100 μM trans-zeatin. In this case PUP1 was expressed under control of the yeast ATPase promoter PMA1 in the vector pDR195 (Rentsch et al., 1995, FEBS Left. 370, […]) in the mutant MG877ura3^−::(FCY). The empty vector (FCY2pDR195) served as control.
(§1) For measuring the rate of uptake the yeast strains MG887ura3^−::pFL61, MG887ura3^−::pFL61-PUP1 and their original strain Σ1278b (Dubois & Grenson, 1979, Mol. Gen. Genet. 175, 67–76) were cultured in complete medium (YPD) without uracil and with 2% glucose as carbon source up to an OD600 of 0.6 at 28° C. The cells were harvested at 3000 g, washed twice with water and brought to an OD600 of 12 with sodium phosphate buffer (100 mM, pH 4.5), 1% glucose. The cell suspension was stored in 100 μl portions on ice up to the beginning of the uptake measurements. Before the start of the uptake measurements the cells were pre-incubated at 30° C. for 2 minutes. The reaction was then started, by which 100 μl of radioactively labelled substrate solution was added to 100 μl cell suspension. The reaction mixture was incubated at 30° C. and after 30, 60, 120 and 180 seconds in each case 50 μl of suspension was withdrawn and placed in 4 ml of ice-cold water (in measurements over 180 seconds more cell suspension and substrate solution were correspondingly added). The cells were absorbed on to glass fibre filters and washed with 4 ml of ice-cold water. The radioactivity on the filters was finally ascertained in a liquid scintillation counter.
The uptake experiments were carried out with ^3H-labelled zeatine in MG887ura3^− as for adenine. To start the reaction 87.3Bq/μl of the radioactive substrate was added to a total concentration of 100 μM trans-zeatine.

[2] = biological target: T1, PUP1 nuclear base transporter; assay: Influence of inhibitors on PUP1-mediated adenine or cytosine uptake in yeast strain MG887ura3-::pFL61-PUP1; type: cell-based; details: for Relative adenine uptake / Relative cytosine uptake: added five minutes before measurement, without inhibitor = 100; for Effect on PUP1-mediated adenine or cytosine uptake: statement in words
Procedure: as §1
(§2) Substrate solution: For the substrate solution what is concerned is a 100 mM sodium phosphate buffer pH 4.5 with 1% glucose and 9.25 Bq/μl of radioactively labelled substrate (25–100 μM [^14C] adenine or [^14C] cytosine). In addition the substrate solution contains the unlabelled substrate, possible inhibitors and competitors in double end-concentration. For estimation of the optimum pH the pH value of the sodium phosphate buffer is also changed. When the influence of glucose on the uptake rate is measured neither the cell suspension nor the substrate solution contains glucose. Glucose is only added after starting the uptake measurements at the commencement of measuring at an end-concentration of 1%.
The influence of various inhibitors on the adenine or cytosine uptake mediated by the PUP1 nuclear base transporter in the yeast strain MG887ura3^−::pFL61-PUP1 is indicated in Table 2. The inhibitors were added to the cells five minutes before beginning the measurements. […] This may be taken as a clear indication of a secondarily active proton-associated uptake mechanism.

[3] = biological target: T2, PUP1 nuclear base transporter (Arabidopsis thaliana, UniProt Q9FZ96); assay: Uptake of radioactively labelled adenine and cytosine by yeast strain MG887ura3-::pFL61-PUP1; type: cell-based; details: initial concentration medium 200 μM; intracellular, cell volume estimated as four times the dry weight
T2 construct: The PUP1 protein expressed by the yeast strain MG887ura3^−::pFL61-PUP1; expressed in transfected cells; host or cells: Saccharomyces cerevisiae MG887ura3- (fcy2), plasmid pFL61-PUP1
Procedure: as §1, §2
(§3) In Table 1 the uptake of radioactively labelled adenine and cytosine mediated by the PUP1 nuclear base transporter is indicated by the yeast strain MG887ura3^−::pFL61-PUP1. For calculation of the intracellular concentration the cell volume is estimated as four times the dry weight (Ninnemann et al., 1994, EMBO J. 15, 3464–3471). The uptake occurs against a concentration gradient.

[4] = biological target: T1, PUP1 nuclear base transporter; assay: as above; type: cell-based
Procedure: as §1, §2, §3

PUP1 [5] = biological target: T3, PUP1 (Arabidopsis thaliana, UniProt Q9FZ96, S63G); assay: Growth of yeast strain DM734-284D on adenosine minimal medium (adenosine transport complementation); type: cell-based; set-up: PUP1 was expressed under control of the yeast ATPase promoter PMA1 in the vector pDR195; expressed in transfected cells; host or cells: Saccharomyces cerevisiae MG887ura3- (A5, A8) or DM734-284D (A7), construct pDR195PUP1; details: minimal medium with 150 μM adenosine instead of adenine; after 3 days
Text: The Saccharomyces cerevisiae strain DM734-284D (genotype: ade8-18, ade2-1, arg-4-16, leu2-17, trp1-1, lys2, ura3: Yeast Genetic Stock Center) was used for growth studies. This yeast strain owing to mutations at the gene loci ade 8-18 and ade 2-1 is not itself in a position to synthesize adenine. […] This adenine is taken up via the purine/cytosine transporter FCY2 of the yeast. The DM734-284D strain is however still in a position to grow in medium containing adenosine instead of adenine, provided adenosine transport in the yeast cells is mediated by an adenosine transporter inserted by genetic engineering.
In order to check whether PUP1 mediates the transport of adenosine, the strain DM734-284D was transformed according to the standard procedure for yeast transformation (Dohmen et al., 1991, Yeast 7,691–692) with the constructs pDR195PUP1 and pDR195 as controls (Rentsch et al., 1995, FEBS Lett. 370, […]). For final checking of the transformation the early stages of transformation were plated on minimal medium containing 150 μM adenine and the amino acids arginine, leucine, tryptophane (each 60 mg/l) and lysine (70 mg/l) necessary for growth. Uracil served as transformation marker. Three independent positive clones of the control and the PUP1-expressing clone were plated on minimal medium containing 150 μM adenosine instead of 150 μM adenine.

PUP1 [6] = biological target: T3, PUP1; assay: Sensitivity of yeast MG887ura3- clones to caffeine-containing minimal medium; type: cell-based; set-up: PUP1 was expressed under control of the yeast ATPase promoter PMA1 in the vector pDR195; expressed in transfected cells; host or cells: Saccharomyces cerevisiae MG887ura3- (A5, A8) or DM734-284D (A7), construct pDR195PUP1; details: minimal medium plates, 6 days at 28° C.
Procedure: In order to check whether PUP1 mediates the transport of caffeine, the sensitivity of the Saccharomyces cerevisiae strain MG887ura3^− to caffeine-containing minimal medium was investigated. At certain concentrations caffeine is toxic to yeast (Bard et al., J. Bacteriol. 141, 999–1002), leading to slower growth or death of the yeast.
For this test various caffeine concentrations between 0 and 1.5% were put into minimal medium. Yeast clones grown in liquid minimal medium for 16 hours were spread out on the corresponding plates and incubated for 6 days at 28° C.

[7] = biological target: T1, PUP1 nuclear base transporter; assay: cell-based
Procedure: as §1

T1 sequence (Q9FZ96 whole entry S63G): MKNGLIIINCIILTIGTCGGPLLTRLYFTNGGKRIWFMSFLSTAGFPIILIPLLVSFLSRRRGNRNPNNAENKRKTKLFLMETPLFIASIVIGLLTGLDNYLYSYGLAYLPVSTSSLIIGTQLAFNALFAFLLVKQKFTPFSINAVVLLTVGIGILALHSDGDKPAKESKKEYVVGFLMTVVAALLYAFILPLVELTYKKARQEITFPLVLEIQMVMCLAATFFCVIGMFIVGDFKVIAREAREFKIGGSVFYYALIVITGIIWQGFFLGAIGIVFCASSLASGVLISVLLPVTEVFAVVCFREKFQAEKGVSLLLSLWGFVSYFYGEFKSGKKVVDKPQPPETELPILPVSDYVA
T3 sequence (Q9FZ96 whole entry S63G): as above
T2 sequence (Q9FZ96 whole entry S63G): as above

Compound: 2-isopentenyl adenine
Transport of cytokinin by PUP1 [1]: can also transport cytokinins

Compound: O=[N+]([O-])c1ccc(O)c([N+](=O)[O-])c1 [2,4-DNP, 2,4-dinitrophenol]
Relative adenine uptake ([2]; 100 μM inhibitor): 54%
Relative cytosine uptake ([2]; 100 μM inhibitor): 58%
Effect on PUP1-mediated adenine or cytosine uptake [2]: block the uptake

Compound: N#CC(C#N)=NNc1cccc(Cl)c1 [CCCP, carbonyl-cyanide-m-chlorphenylhydrazone]
Relative adenine uptake ([2]; 100 μM inhibitor): 13%
Relative cytosine uptake ([2]; 100 μM inhibitor): 20%
Effect on PUP1-mediated adenine or cytosine uptake [2]: block the uptake

Compound: Nc1cc[nH]c(=O)n1 [Cytosine, cytosine]
End conc Cells [3]: 2660 µM
Enrichment factor ([4]; cells versus medium, initial concentration medium 200 μM): 18
End conc. Medium ([4]; initial concentration medium 200 μM, yeast strain MG887ura3-::pFL61-PUP1): 145 µM
pH dependence of PUP1-mediated uptake ([4]; yeast strain MG887ura3-::pFL61-PUP1, FIG. 2, substrate 100 μM): dependent on the pH level
Glucose dependence of PUP1-mediated uptake ([4]; yeast strain MG887ura3-::pFL61-PUP1, FIG. 3, glucose 1%): glucose-dependent

Compound: C(=NC1CCCCC1)=NC1CCCCC1 [DCCD]
Relative adenine uptake ([2]; 100 μM inhibitor): 47%
Relative cytosine uptake ([2]; 100 μM inhibitor): 55%

Compound: Nc1ncnc2c1ncn2[C@@H]1O[C@H](CO)[C@@H](O)[C@H]1O [adenosine]
Growth of PUP1-expressing clone (PUP1 [5]): Definite growth
Growth of clone transformed with the vector pDR195 (control) (PUP1 [5]): no growth

Compound: Cn1c(=O)c2c(ncn2C)n(C)c1=O [caffeine]
Caffeine concentration from which PUP1-expressing yeasts displayed distinctly slowed-down growth compared to control and PUP2-expressing strain (PUP1 [6]): ≥ 0.2%

Compound: C[C@@H]1C[C@@H]([C@H](O)CC2CC(=O)NC(=O)C2)C(=O)[C@@H](C)C1 [cycloheximide]
Relative adenine uptake ([2]; 10 μg/ml inhibitor): 95%
Relative cytosine uptake ([2]; 10 μg/ml inhibitor): 97%

Compound: CC/C(=C(/CC)c1ccc(O)cc1)c1ccc(O)cc1 [diethylstilboestrol]
Relative adenine uptake ([2]; 100 μM inhibitor): 4%
Relative cytosine uptake ([2]; 100 μM inhibitor): 8%
Effect on PUP1-mediated adenine or cytosine uptake [2]: block the uptake

Compound: c1coc(CNc2ncnc3[nH]cnc23)c1 [kinetin]
Ki [7]: 35 µM

Ki [7]: 30 µM
Increased uptake of radioactively labelled trans-zeatine, PUP1-expressing clone versus control strain (pDR195) ([1]; 100 μM trans-zeatine, three independent experiments): 70 times
Transport of cytokinin by PUP1 [1]: can also transport cytokinins
Compound: C/C(=C\CNc1ncnc2[nH]cnc12)CO [zeatin]
